{"source": "patent US9738634B2", "about": "“Heterocyclic amide compound and herbicide” (SYNGENTA PARTICIPATIONS AG, priority 2013, dated 2017)", "type_in_all_cases": "in vivo", "settings_in_all_cases": "treatment dosage 320 g/ha", "key": {"[1]": {"tested_on": "redroot pigweed", "experiment": "Test Example 4: weedkilling efficacy by foliar treatment; L: redroot pigweed", "in_short": "(§1)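 Seeds are spot-sown into sterilized diluvial soil and covered with about 1.5 cm of soil. After 14 days' greenhouse growth at 25 to 30° C, plants are sprayed on stems and leaves with diluted emulsion at the stated g/ha rate, then scored at 3 weeks.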"}, "[2]": {"tested_on": "bulrush", "experiment": "Test Example 1: weedkilling efficacy, preemergent weed treatment in the submerged state; B: bulrush", "in_short": "(§2)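 Pre-emergence paddy test: weed seeds sown in submerged alluvial soil (4 cm water), 2.5-leaf rice transplanted, water-diluted emulsion applied to water surface at sowing at stated g/ha. Scored at 3 weeks, greenhouse 25–30 °C.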"}, "[3]": {"tested_on": "chickweed", "experiment": "Test Example 4: weedkilling efficacy by foliar treatment; N: chickweed", "in_short": "as §1"}, "[4]": {"tested_on": "soybean", "experiment": "Test Example 3: soil treatment, effect on crop; d: soybean", "in_short": "(§3)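 Crop and weed responses were judged three weeks after a uniform surface spray of the water-diluted emulsion at the given g/ha rate. Seeds sat beneath about 1.5 cm of sterilized diluvial soil, and boxes stood in a greenhouse at 25 to 30° C.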"}, "[5]": {"tested_on": "wild oat", "experiment": "Test Example 4: weedkilling efficacy by foliar treatment; G: wild oat", "in_short": "as §1"}, "[6]": {"tested_on": "fig-leafed goosefoot", "experiment": "Test Example 4: weedkilling efficacy by foliar treatment; M: fig-leafed goosefoot", "in_short": "as §1"}, "[7]": {"tested_on": "corn", "experiment": "Test Example 4: foliar treatment, effect on crop; c: corn", "in_short": "as §1"}, "[8]": {"tested_on": "rapeseed", "experiment": "Test Example 3: soil treatment, effect on crop; g: rapeseed", "in_short": "as §3"}, "[9]": {"tested_on": "beet", "experiment": "Test Example 3: soil treatment, effect on crop; f: beet", "in_short": "as §3"}, "[10]": {"tested_on": "wheat", "experiment": "Test Example 4: foliar treatment, effect on crop; e: wheat", "in_short": "as §1"}, "[11]": {"tested_on": "barnyard grass", "experiment": "Test Example 1: weedkilling efficacy, preemergent weed treatment in the submerged state; A: barnyard grass", "in_short": "as §2"}, "[12]": {"tested_on": "black-grass", "experiment": "Test Example 4: weedkilling efficacy by foliar treatment; H: black-grass", "in_short": "as §1"}, "[13]": {"tested_on": "directly sown rice", "experiment": "Test Example 3: soil treatment, effect on crop; b: directly sown rice", "in_short": "as §3"}, "[14]": {"tested_on": "oval-leafed pondweed", "experiment": "Test Example 1: weedkilling efficacy, preemergent weed treatment in the submerged state; C: oval-leafed pondweed", "in_short": "as §2"}, "[15]": {"tested_on": "common wind-grass", "experiment": "Test Example 3: weedkilling efficacy through soil treatment; J: common wind-grass", "in_short": "as §3"}, "[16]": {"tested_on": "Indian mallow", "experiment": "Test Example 4: weedkilling efficacy by foliar treatment; K: Indian mallow", "in_short": "as §1"}, "[17]": {"tested_on": "wheat", "experiment": "Test Example 3: soil treatment, effect on crop; e: wheat", "in_short": "as §3"}, "[18]": {"tested_on": "Italian ryegrass", "experiment": "Test Example 4: weedkilling efficacy by foliar treatment; I: Italian ryegrass", "in_short": "as §1"}, "[19]": {"tested_on": "green foxtail", "experiment": "Test Example 4: weedkilling efficacy by foliar treatment; E: green foxtail", "in_short": "as §1"}, "[20]": {"tested_on": "catchweed", "experiment": "Test Example 4: weedkilling efficacy by foliar treatment; O: catchweed", "in_short": "as §1"}, "[21]": {"tested_on": "soybean", "experiment": "Test Example 4: foliar treatment, effect on crop; d: soybean", "in_short": "as §1"}, "[22]": {"tested_on": "beet", "experiment": "Test Example 4: foliar treatment, effect on crop; f: beet", "in_short": "as §1"}, "[23]": {"tested_on": "black-grass", "experiment": "Test Example 3: weedkilling efficacy through soil treatment; H: black-grass", "in_short": "as §3"}, "[24]": {"tested_on": "birds-eye speedwell", "experiment": "Test Example 4: weedkilling efficacy by foliar treatment; p: birds-eye speedwell", "in_short": "as §1"}, "[25]": {"tested_on": "common wind-grass", "experiment": "Test Example 4: weedkilling efficacy by foliar treatment; J: common wind-grass", "in_short": "as §1"}, "[26]": {"tested_on": "wild oat", "experiment": "Test Example 3: weedkilling efficacy through soil treatment; G: wild oat", "in_short": "as §3"}, "[27]": {"tested_on": "fig-leafed goosefoot", "experiment": "Test Example 3: weedkilling efficacy through soil treatment; M: fig-leafed goosefoot", "in_short": "as §3"}, "[28]": {"tested_on": "catchweed", "experiment": "Test Example 3: weedkilling efficacy through soil treatment; O: catchweed", "in_short": "as §3"}, "[29]": {"tested_on": "transplanted rice", "experiment": "Test Example 1: preemergent weed treatment in the submerged state, effect on crop; a: transplanted rice", "in_short": "as §2"}, "[30]": {"tested_on": "directly sown rice", "experiment": "Test Example 4: foliar treatment, effect on crop; b: directly sown rice", "in_short": "as §1"}, "[31]": {"tested_on": "barnyard grass", "experiment": "Test Example 2: weedkilling efficacy, growth period weed treatment in the submerged state; A: barnyard grass", "in_short": "(§4)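 Seedlings at 1-2 leaves in 4 cm-deep submerged alluvial soil received emulsion formulations on the water surface, dosed per hectare; effects were judged 3 weeks on.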"}, "[32]": {"tested_on": "crabgrass", "experiment": "Test Example 4: weedkilling efficacy by foliar treatment; D: crabgrass", "in_short": "as §1"}, "[33]": {"tested_on": "redroot pigweed", "experiment": "Test Example 3: weedkilling efficacy through soil treatment; L: redroot pigweed", "in_short": "as §3"}, "[34]": {"tested_on": "Italian ryegrass", "experiment": "Test Example 3: weedkilling efficacy through soil treatment; I: Italian ryegrass", "in_short": "as §3"}, "[35]": {"tested_on": "barnyard grass", "experiment": "Test Example 4: weedkilling efficacy by foliar treatment; F: barnyard grass", "in_short": "as §1"}, "[36]": {"tested_on": "rapeseed", "experiment": "Test Example 4: foliar treatment, effect on crop; g: rapeseed", "in_short": "as §1"}, "[37]": {"tested_on": "green foxtail", "experiment": "Test Example 3: weedkilling efficacy through soil treatment; E: green foxtail", "in_short": "as §3"}, "[38]": {"tested_on": "crabgrass", "experiment": "Test Example 3: weedkilling efficacy through soil treatment; D: crabgrass", "in_short": "as §3"}, "[39]": {"tested_on": "corn", "experiment": "Test Example 3: soil treatment, effect on crop; c: corn", "in_short": "as §3"}, "[40]": {"tested_on": "birds-eye speedwell", "experiment": "Test Example 3: weedkilling efficacy through soil treatment; p: birds-eye speedwell", "in_short": "as §3"}, "[41]": {"tested_on": "Indian mallow", "experiment": "Test Example 3: weedkilling efficacy through soil treatment; K: Indian mallow", "in_short": "as §3"}, "[42]": {"tested_on": "barnyard grass", "experiment": "Test Example 3: weedkilling efficacy through soil treatment; F: barnyard grass", "in_short": "as §3"}, "[43]": {"tested_on": "chickweed", "experiment": "Test Example 3: weedkilling efficacy through soil treatment; N: chickweed", "in_short": "as §3"}, "[44]": {"tested_on": "oval-leafed pondweed", "experiment": "Test Example 2: weedkilling efficacy, growth period weed treatment in the submerged state; C: oval-leafed pondweed", "in_short": "as §4"}}}
{"compound": "CC1=C(c2ccccc2)C(=O)N(C(C)(C)C(=O)Nc2ccc3ccccc3n2)CO1", "note": "[B-1-18]", "values": [{"measurement": "L (redroot pigweed) weedkilling efficacy grade", "setting": "[1]", "result": "2 (weed kill ratio 20% or more, less than 40%)"}, {"measurement": "B (bulrush) weedkilling efficacy grade", "setting": "[2]", "result": "5 (weed kill ratio 90% or more, (practically complete withering))"}, {"measurement": "N (chickweed) weedkilling efficacy grade", "setting": "[3]", "result": "3 (weed kill ratio 40% or more, less than 70%)"}, {"measurement": "d (soybean) effect on crop grade", "setting": "[4]", "result": "0 (weed kill ratio 5% or less (practically no effect))"}, {"measurement": "G (wild oat) weedkilling efficacy grade", "setting": "[5]", "result": "0 (weed kill ratio 5% or less (practically no effect))"}, {"measurement": "M (fig-leafed goosefoot) weedkilling efficacy grade", "setting": "[6]", "result": "3 (weed kill ratio 40% or more, less than 70%)"}, {"measurement": "c (corn) effect on crop grade", "setting": "[7]", "result": "1 (weed kill ratio 5% or more, less than 20%)"}, {"measurement": "g (rapeseed) effect on crop grade", "setting": "[8]", "result": "0 (weed kill ratio 5% or less (practically no effect))"}, {"measurement": "f (beet) effect on crop grade", "setting": "[9]", "result": "0 (weed kill ratio 5% or less (practically no effect))"}, {"measurement": "e (wheat) effect on crop grade", "setting": "[10]", "result": "0 (weed kill ratio 5% or less (practically no effect))"}, {"measurement": "A (barnyard grass) weedkilling efficacy grade", "setting": "[11]", "result": "5 (weed kill ratio 90% or more, (practically complete withering))"}, {"measurement": "H (black-grass) weedkilling efficacy grade", "setting": "[12]", "result": "1 (weed kill ratio 5% or more, less than 20%)"}, {"measurement": "b (directly sown rice) effect on crop grade", "setting": "[13]", "result": "0 (weed kill ratio 5% or less (practically no effect))"}, {"measurement": "C (oval-leafed pondweed) weedkilling efficacy grade", "setting": "[14]", "result": "5 (weed kill ratio 90% or more, (practically complete withering))"}, {"measurement": "J (common wind-grass) weedkilling efficacy grade", "setting": "[15]", "result": "5 (weed kill ratio 90% or more, (practically complete withering))"}, {"measurement": "K (Indian mallow) weedkilling efficacy grade", "setting": "[16]", "result": "3 (weed kill ratio 40% or more, less than 70%)"}, {"measurement": "e (wheat) effect on crop grade", "setting": "[17]", "result": "0 (weed kill ratio 5% or less (practically no effect))"}, {"measurement": "I (Italian ryegrass) weedkilling efficacy grade", "setting": "[18]", "result": "1 (weed kill ratio 5% or more, less than 20%)"}, {"measurement": "E (green foxtail) weedkilling efficacy grade", "setting": "[19]", "result": "3 (weed kill ratio 40% or more, less than 70%)"}, {"measurement": "O (catchweed) weedkilling efficacy grade", "setting": "[20]", "result": "4 (weed kill ratio 70% or more, less than 90%)"}, {"measurement": "d (soybean) effect on crop grade", "setting": "[21]", "result": "0 (weed kill ratio 5% or less (practically no effect))"}, {"measurement": "f (beet) effect on crop grade", "setting": "[22]", "result": "0 (weed kill ratio 5% or less (practically no effect))"}, {"measurement": "H (black-grass) weedkilling efficacy grade", "setting": "[23]", "result": "2 (weed kill ratio 20% or more, less than 40%)"}, {"measurement": "P (birds-eye speedwell) weedkilling efficacy grade", "setting": "[24]", "result": "4 (weed kill ratio 70% or more, less than 90%)"}, {"measurement": "J (common wind-grass) weedkilling efficacy grade", "setting": "[25]", "result": "3 (weed kill ratio 40% or more, less than 70%)"}, {"measurement": "G (wild oat) weedkilling efficacy grade", "setting": "[26]", "result": "0 (weed kill ratio 5% or less (practically no effect))"}, {"measurement": "M (fig-leafed goosefoot) weedkilling efficacy grade", "setting": "[27]", "result": "0 (weed kill ratio 5% or less (practically no effect))"}, {"measurement": "O (catchweed) weedkilling efficacy grade", "setting": "[28]", "result": "0 (weed kill ratio 5% or less (practically no effect))"}, {"measurement": "a (transplanted rice) effect on crop grade", "setting": "[29]", "result": "0 (weed kill ratio 5% or less (practically no effect))"}, {"measurement": "b (directly sown rice) effect on crop grade", "setting": "[30]", "result": "0 (weed kill ratio 5% or less (practically no effect))"}, {"measurement": "A (barnyard grass) weedkilling efficacy grade", "setting": "[31]", "result": "4 (weed kill ratio 70% or more, less than 90%)"}, {"measurement": "D (crabgrass) weedkilling efficacy grade", "setting": "[32]", "result": "2 (weed kill ratio 20% or more, less than 40%)"}, {"measurement": "L (redroot pigweed) weedkilling efficacy grade", "setting": "[33]", "result": "0 (weed kill ratio 5% or less (practically no effect))"}, {"measurement": "I (Italian ryegrass) weedkilling efficacy grade", "setting": "[34]", "result": "2 (weed kill ratio 20% or more, less than 40%)"}, {"measurement": "F (barnyard grass) weedkilling efficacy grade", "setting": "[35]", "result": "2 (weed kill ratio 20% or more, less than 40%)"}, {"measurement": "g (rapeseed) effect on crop grade", "setting": "[36]", "result": "3 (weed kill ratio 40% or more, less than 70%)"}, {"measurement": "E (green foxtail) weedkilling efficacy grade", "setting": "[37]", "result": "4 (weed kill ratio 70% or more, less than 90%)"}, {"measurement": "D (crabgrass) weedkilling efficacy grade", "setting": "[38]", "result": "3 (weed kill ratio 40% or more, less than 70%)"}, {"measurement": "c (corn) effect on crop grade", "setting": "[39]", "result": "0 (weed kill ratio 5% or less (practically no effect))"}, {"measurement": "P (birds-eye speedwell) weedkilling efficacy grade", "setting": "[40]", "result": "0 (weed kill ratio 5% or less (practically no effect))"}, {"measurement": "K (Indian mallow) weedkilling efficacy grade", "setting": "[41]", "result": "0 (weed kill ratio 5% or less (practically no effect))"}, {"measurement": "F (barnyard grass) weedkilling efficacy grade", "setting": "[42]", "result": "1 (weed kill ratio 5% or more, less than 20%)"}, {"measurement": "N (chickweed) weedkilling efficacy grade", "setting": "[43]", "result": "0 (weed kill ratio 5% or less (practically no effect))"}, {"measurement": "C (oval-leafed pondweed) weedkilling efficacy grade", "setting": "[44]", "result": "5 (weed kill ratio 90% or more, (practically complete withering))"}]}
